Measured values: patent US20260028354A1, “TETRAHYDRONAPHTHALENE DERIVATIVES AS ESTROGEN RECEPTOR DEGRADERS” (REGENT OF THE UNIVERSITY OF MICHIGAN, priority 2022, published 2026)
Where two headings read alike, the source gives them in different places.

Key:
[1] = Western blot analysis for "B" compounds; assay type: cell-based; details: read-out: Traditional Western Degradation Potency (DC50)
Procedure, shortened: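 Compound-treated cells lysed in RIPA buffer with protease inhibitors; equal protein (BCA) run on 10% SDS-PAGE, transferred to PVDF and probed with target antibodies. Band intensities quantified by densitometry and normalized to GAPDH.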

[2] = Cell growth assay (WST-8) for "B" compounds; assay type: cell-based; details: read-out: Cell growth Inhibition in T47D cell line IC50
Procedure: Cell Growth Assay. The cells were seeded at 1500/well in 96 well plates overnight. One day after the seeding, they were treated with indicated doses of compounds respectively, 4 days after the compound treatment, 10% WST-8 reagent was added to the culture medium and incubate in a CO2 incubator at 37° C. for 2.5 hours. Before reading, the plate was mixed gently on an orbital shaker for one minute to ensure homogeneous distribution of color. The absorbance was measured of each sample using a microplate reader at a wavelength of 450 nm. The relative absorbance was calculated against the vehicle control from three individually repeats.

Row | DC50 [1] | SMILES | IC50 ([2]; T47D, T47D cell line) | IC50 ([2]; T47D cell line) | IC50 ([2]; T47D)
1 | 10 to 100 nM | O=C1CCC(N2C(=O)c3cc4c(cc3C2=O)CN(CC(=O)N2CCC3(CC2)CCN(c2ccc([C@@H]5c6ccc(O)cc6CCC56CCCC6)cc2)CC3)C4)C(=O)N1 (stereo in doubt) [Compound B49, 2-(2,6-dioxopiperidin-3-yl)-6-(2-(9-(4-(6'-hydroxy-3',4'-dihydro-1'H-spiro[cyclopentane-1,2'-naphthalen]-1'-yl)phenyl)-3,9-diazaspiro[5.5]undecan-3-yl)-2-oxoethyl)-6,7-dihydropyrrolo[3,4-f]isoindole-1,3(2H,5H)-dione] | 1 to 10 nM | – | –
2 | 10 to 100 nM | O=C1CCC(N2C(=O)c3cc4c(cc3C2=O)CN(CC(=O)N2CCC3(CC2)CCN(c2ccc([C@@H]5c6ccc(B(O)O)cc6CC[C@@H]5c5ccccc5)cc2)CC3)C4)C(=O)N1 (mixture of isomers) [Compound B50, ((5R,6S)-5-(4-(9-(2-(6-(2,6-dioxopiperidin-3-yl)-5,7-dioxo-3,5,6,7-tetrahydropyrrolo[3,4-f]isoindol-2(1H)-yl)acetyl)-3,9-diazaspiro[5.5]undecan-3-yl)phenyl)-6-phenyl-5,6,7,8-tetrahydronaphthalen-2-yl)boronic acid] | > 10 nM | – | –
3 | 10 to 100 nM | O=C1CCC(N2C(=O)c3cc4c(cc3C2=O)CN(CC(=O)N2CCC3(CC2)CCN(c2ccc([C@@H]5c6ccc(O)cc6CC[C@@H]5c5ccccc5)cc2)CC3)C4)C(=O)N1 (stereo partly drawn) [Compound B133, 2-(2,6-dioxopiperidin-3-yl)-6-(2-(9-(4-((1R,2S)-6-hydroxy-2-phenyl-1,2,3,4-tetrahydronaphthalen-1-yl)phenyl)-3,9-diazaspiro[5.5]undecan-3-yl)-2-oxoethyl)-6,7-dihydropyrrolo[3,4-f]isoindole-1,3(2H,5H)-dione] | – | 1 to 10 nM | –
4 | > 100 nM | O=C1CCC(N2C(=O)c3cc4c(cc3C2=O)CCN(CC(=O)N2CCC3(CC2)CCN(c2ccc([C@@H]5c6ccc(O)cc6CC[C@@H]5c5ccc(F)cc5)cc2)CC3)CC4)C(=O)N1 (stereo partly drawn) [Compound B52, 2-(2,6-dioxopiperidin-3-yl)-7-(2-(9-(4-((1R,2S)-2-(4-fluorophenyl)-6-hydroxy-1,2,3,4-tetrahydronaphthalen-1-yl)phenyl)-3,9-diazaspiro[5.5]undecan-3-yl)-2-oxoethyl)-6,7,8,9-tetrahydroazepino[4,5-f]isoindole-1,3(2H,5H)-dione] | 1 to 10 nM | – | –
5 | 10 to 100 nM | O=C1CCC(N2Cc3cc4c(cc3C2=O)OC[C@@H]2CN(CC3CCN(c5ccc([C@@H]6c7ccc(O)cc7CC[C@@H]6c6ccccc6)cc5)CC3)CCN42)C(=O)N1 (stereo partly drawn) [Compound B135, 3-((S)-3-((1-(4-((1R,2S)-6-hydroxy-2-phenyl-1,2,3,4-tetrahydronaphthalen-1-yl)phenyl)piperidin-4-yl)methyl)-8-oxo-1,2,3,4,4a,5,8,10-octahydro-9H-pyrazino[1′,2′:4,5][1,4]oxazino[2,3-f]isoindol-9-yl)piperidine-2,6-dione] | 1 to 10 nM | – | –
6 | > 100 nM | O=C1CCC(N2C(=O)c3cc4c(cc3C2=O)CN(CC(=O)N2CCC3(CC2)CCN(c2cc(F)c([C@@H]5c6ccc(O)cc6CC[C@@H]5c5ccccc5)c(F)c2)CC3)C4)C(=O)N1 (mixture of isomers) [Compound B46, 6-(2-(9-(3,5-difluoro-4-((1S,2S)-6-hydroxy-2-phenyl-1,2,3,4-tetrahydronaphthalen-1-yl)phenyl)-3,9-diazaspiro[5.5]undecan-3-yl)-2-oxoethyl)-2-(2,6-dioxopiperidin-3-yl)-6,7-dihydropyrrolo[3,4-f]isoindole-1,3(2H,5H)-dione] | > 10 nM | – | –

Continued, compound first:

Row | SMILES | DC50 [1] | IC50 ([2]; T47D, T47D cell line) | IC50 ([2]; T47D cell line) | IC50 ([2]; T47D)
7 | C[C@H]1CC2(CCN(c3ccc([C@@H]4c5ccc(O)cc5CC[C@@H]4c4ccccc4)cc3)CC2)CN1CC(=O)N1Cc2cc3c(cc2C1)C(=O)N(C1CCC(=O)NC1=O)C3=O (mixture of isomers) [Compound B30, 2-(2,6-dioxopiperidin-3-yl)-6-(2-((S)-8-(4-((1R,2S)-6-hydroxy-2-phenyl-1,2,3,4-tetrahydronaphthalen-1-yl)phenyl)-3-methyl-2,8-diazaspiro[4.5]decan-2-yl)acetyl)-6,7-dihydropyrrolo[3,4-f]isoindole-1,3(2H,5H)-dione] | > 100 nM | > 10 nM | – | –
8 | O=C1CCC(N2C(=O)c3cc4c(cc3C2=O)CN(CC(=O)N2CC3(CCN(c5ccc([C@@H]6c7ccc(O)cc7CC[C@@H]6c6ccccc6)cc5)CC3)C2)C4)C(=O)N1 (mixture of isomers) [Compound B5, 2-(2,6-dioxopiperidin-3-yl)-6-(2-(7-(4-((1R,2S)-6-hydroxy-2-phenyl-1,2,3,4-tetrahydronaphthalen-1-yl)phenyl)-2,7-diazaspiro[3.5]nonan-2-yl)-2-oxoethyl)-6,7-dihydropyrrolo[3,4-f]isoindole-1,3(2H,5H)-dione] | < 10 nM | – | > 10 nM | –
9 | C[C@H]1CC2(CCN(C(=O)CN3Cc4cc5c(cc4C3)C(=O)N(C3CCC(=O)NC3=O)C5=O)CC2)CN1c1ccc([C@@H]2c3ccc(O)cc3CC[C@@H]2c2ccccc2)cc1 (mixture of isomers) [Compound B24, 2-(2,6-dioxopiperidin-3-yl)-6-(2-((S)-2-(4-((1R,2S)-6-hydroxy-2-phenyl-1,2,3,4-tetrahydronaphthalen-1-yl)phenyl)-3-methyl-2,8-diazaspiro[4.5]decan-8-yl)-2-oxoethyl)-6,7-dihydropyrrolo[3,4-f]isoindole-1,3(2H,5H)-dione] | 10 to 100 nM | > 10 nM | – | –
10 | C[C@H]1CC2(CCN(c3ccc([C@@H]4c5ccc(O)cc5CC[C@@H]4c4ccccc4)cc3)CC2)CN1C(=O)CN1Cc2cc3c(cc2C1)C(=O)N(C1CCC(=O)NC1=O)C3=O (mixture of isomers) [Compound B23, 2-(2,6-dioxopiperidin-3-yl)-6-(2-((S)-8-(4-((1R,2S)-6-hydroxy-2-phenyl-1,2,3,4-tetrahydronaphthalen-1-yl)phenyl)-3-methyl-2,8-diazaspiro[4.5]decan-2-yl)-2-oxoethyl)-6,7-dihydropyrrolo[3,4-f]isoindole-1,3(2H,5H)-dione] | 10 to 100 nM | > 10 nM | – | –
11 | O=C1CCC(N2C(=O)c3cc4c(cc3C2=O)CN(CC(=O)N2CCC3(CC2)CCN(c2ccc([C@@H]5c6ccc(O)cc6CC[C@@H]5c5ccccc5)cc2)CC3)C4)C(=O)N1 (mixture of isomers) [Compound B12, 2-(2,6-dioxopiperidin-3-yl)-6-(2-(9-(4-((1R,2S)-6-hydroxy-2-phenyl-1,2,3,4-tetrahydronaphthalen-1-yl)phenyl)-3,9-diazaspiro[5.5]undecan-3-yl)-2-oxoethyl)-6,7-dihydropyrrolo[3,4-f]isoindole-1,3(2H,5H)-dione] | 10 to 100 nM | – | > 10 nM | –
12 | O=C1CCC(N2C(=O)c3cc4c(cc3C2=O)CN(CC(=O)N2CC3(CCN(c5ccc([C@@H]6c7ccc(O)cc7CC[C@@H]6c6ccccc6)c(F)c5)CC3)C2)C4)C(=O)N1 (mixture of isomers) [Compound B44, 2-(2,6-dioxopiperidin-3-yl)-6-(2-(7-(3-fluoro-4-((1S,2S)-6-hydroxy-2-phenyl-1,2,3,4-tetrahydronaphthalen-1-yl)phenyl)-2,7-diazaspiro[3.5]nonan-2-yl)-2-oxoethyl)-6,7-dihydropyrrolo[3,4-f]isoindole-1,3(2H,5H)-dione] | 10 to 100 nM | > 10 nM | – | –
13 | O=C1CCC(N2Cc3c(ccc4c3OC[C@H]3CN(C(=O)CN5CCN(c6ccc([C@@H]7c8ccc(O)cc8CC[C@@H]7c7ccccc7)cc6)CC5)CCN43)C2=O)C(=O)N1 (stereo partly drawn) [Compound B249, 3-((R)-7-(2-(4-(4-((1R,2S)-6-hydroxy-2-phenyl-1,2,3,4-tetrahydronaphthalen-1-yl)phenyl)piperazin-1-yl)acetyl)-1-oxo-1,3,5,5a,6,7,8,9-octahydro-2H-pyrazino[1′,2′:4,5][1,4]oxazino[2,3-e]isoindol-2-yl)piperidine-2,6-dione] | – | – | – | < 1 nM
14 | O=C1CC[C@H](N2Cc3c(ccc4c3OC[C@H]3CN(CC5CC6(C5)CN(c5ccc([C@@H]7c8ccc(O)cc8CC[C@@H]7c7ccccc7)cc5)C6)CCN43)C2=O)C(=O)N1 [Compound B351, (S)-3-((R)-7-((2-(4-((1R,2S)-6-hydroxy-2-phenyl-1,2,3,4-tetrahydronaphthalen-1-yl)phenyl)-2-azaspiro[3.3]heptan-6-yl)methyl)-1-oxo-1,3,5,5a,6,7,8,9-octahydro-2H-pyrazino[1′,2′:4,5][1,4]oxazino[2,3-e]isoindol-2-yl)piperidine-2,6-dione] | – | – | – | 1 to 10 nM
15 | O=C1CC[C@H](N2Cc3c(ccc4c3OC[C@H]3CN(C[C@@H]5COC6(CCN(c7ccc([C@@H]8c9ccc(O)cc9CC[C@@H]8c8ccccc8)cc7)CC6)C5)CCN43)C2=O)C(=O)N1 [Compound B396, (S)-3-((R)-7-(((R)-8-(4-((1R,2S)-6-hydroxy-2-phenyl-1,2,3,4-tetrahydronaphthalen-1-yl)phenyl)-1-oxa-8-azaspiro[4.5]decan-3-yl)methyl)-1-oxo-1,3,5,5a,6,7,8,9-octahydro-2H-pyrazino[1′,2′:4,5][1,4]oxazino[2,3-e]isoindol-2-yl)piperidine-2,6-dione] | – | – | – | < 1 nM
16 | O=C1CC[C@H](N2Cc3cc4c(cc3C2=O)OCC2(CN(CC3CCN(c5ccc([C@@H]6c7ccc(O)cc7CC[C@@H]6c6ccccc6)cc5)CC3)C2)O4)C(=O)N1 [Compound B395, (S)-3-(1-((1-(4-((1R,2S)-6-hydroxy-2-phenyl-1,2,3,4-tetrahydronaphthalen-1-yl)phenyl)piperidin-4-yl)methyl)-6′-oxo-6′,8′-dihydro-3′H,7′H-spiro[azetidine-3,2′-[1,4]dioxino[2,3-f]isoindol]-7′-yl)piperidine-2,6-dione] | – | 1 to 10 nM | – | –
